Test results published in the NIST ThermoML archive (doi:10.1016/j.jct.2018.09.012).

What was measured:
[1] = Molar enthalpy of transition or fusion; details: Crystal; DSC
[2] = for vapor or sublimation pressure: Gas chromatography; for Normal melting temperature: Crystal

CC1(C)CCC[C@]2(C)[C@H]3CCO[C@]3(C)CC[C@@H]12 [(-)-Ambroxide]
Details | Molar enthalpy of transition or fusion [kcal/mol]
[1] | 4.85

[2]
Details | vapor or sublimation pressure [kPa]
298.15 K, Metastable liquid | 0.00012
310 K, Metastable liquid | 0.00039
320 K, Metastable liquid | 0.00096
330 K, Metastable liquid | 0.0023
340 K, Metastable liquid | 0.0049
350 K, Liquid | 0.01
360 K, Liquid | 0.02
370 K, Liquid | 0.038
380 K, Liquid | 0.069
390 K, Liquid | 0.12
400 K, Liquid | 0.2
410 K, Liquid | 0.32
420 K, Liquid | 0.51
430 K, Liquid | 0.77
440 K, Liquid | 1.1
450 K, Liquid | 1.7
460 K, Liquid | 2.4
470 K, Liquid | 3.4
480 K, Liquid | 4.7
490 K, Liquid | 6.3
500 K, Liquid | 8.4

[2]
Details | Normal melting temperature [°C]
DTA | 72.7
visual observation | 75.00

CC1COCc2cc3c(cc21)C(C)(C)C(C)C3(C)C (stereo not drawn) [Galaxolide]
[2], Metastable liquid
Details | vapor or sublimation pressure [kPa]
298.15 K | 2.6e-05
310 K | 9.9e-05
320 K | 0.00027
330 K | 0.00071
340 K | 0.0017
350 K | 0.0038
360 K | 0.0081
370 K | 0.016
380 K | 0.032
390 K | 0.058
400 K | 0.1
410 K | 0.16
420 K | 0.29
430 K | 0.46
440 K | 0.72
450 K | 1.1
460 K | 1.6
470 K | 2.4
480 K | 3.4
490 K | 4.8
500 K | 6.6

c1ccc2c(c1)oc1ccccc12 [dibenzo[bd]furan]
[2]
Details | vapor or sublimation pressure [kPa]
298.15 K, Metastable liquid | 0.0011
310 K, Metastable liquid | 0.0031
320 K, Metastable liquid | 0.007
330 K, Metastable liquid | 0.015
340 K, Metastable liquid | 0.03
350 K, Metastable liquid | 0.058
360 K, Liquid | 0.11
370 K, Liquid | 0.18
380 K, Liquid | 0.31
390 K, Liquid | 0.51
400 K, Liquid | 0.8
410 K, Liquid | 1.2
420 K, Liquid | 1.8
430 K, Liquid | 2.6
440 K, Liquid | 3.7
450 K, Liquid | 5.2

c1ccc2ccccc2c1 [naphthalene]
Details | Molar enthalpy of transition or fusion [kcal/mol]
[1] | 4.57

Details | Normal melting temperature [°C]
[2], DTA | 79.2
